The experiment addresses T1, FSHR (Homo sapiens, UniProt P23945).
T1 construct: expressed in transfected cells; host or cells: CHO cells, clone Cho-FSHR-LUC-1-1-43
T1 sequence (P23945 18-695): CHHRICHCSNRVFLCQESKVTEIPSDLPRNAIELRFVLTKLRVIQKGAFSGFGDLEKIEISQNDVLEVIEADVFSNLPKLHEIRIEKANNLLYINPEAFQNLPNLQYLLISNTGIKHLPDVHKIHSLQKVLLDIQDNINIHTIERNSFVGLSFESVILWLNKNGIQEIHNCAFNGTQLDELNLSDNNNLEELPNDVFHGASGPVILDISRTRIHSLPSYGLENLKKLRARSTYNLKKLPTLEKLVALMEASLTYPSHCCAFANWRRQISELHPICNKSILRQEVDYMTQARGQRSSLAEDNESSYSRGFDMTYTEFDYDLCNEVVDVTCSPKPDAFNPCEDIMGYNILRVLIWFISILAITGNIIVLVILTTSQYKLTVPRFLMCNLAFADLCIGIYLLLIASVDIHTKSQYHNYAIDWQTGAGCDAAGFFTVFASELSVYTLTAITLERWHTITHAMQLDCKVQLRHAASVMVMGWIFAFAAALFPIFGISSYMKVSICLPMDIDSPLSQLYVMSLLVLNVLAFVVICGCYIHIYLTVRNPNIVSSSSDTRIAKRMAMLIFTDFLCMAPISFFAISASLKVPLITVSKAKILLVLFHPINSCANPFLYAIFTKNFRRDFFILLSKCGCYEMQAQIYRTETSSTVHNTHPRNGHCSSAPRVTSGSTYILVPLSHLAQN
Description: EC50 of cyclic AMP production in CHO FSHR cells + EC20 FSH (Assay A). The experiment is classed as cell-based. The note with it: CHO-FSHR-LUC cells, in presence of EC20 FSH, cAMP HTRF, 1 h 37° C. How it is done: EC50 of cyclic AMP production in CHO FSHR cells+EC20 FSH (Assay A)
2500 Cho-FSHR-LUC-1-1-43 cells were plated per well in 5 μl of phenol red free DMEM/F12+1% FBS. […] Cells were assayed by adding 100 μl of 2×EC20 FSH/IBMX in DMEM/F12+0.1% BSA) by Multidrop to 2 μl of test compound stamped in 384 well plates (compounds are diluted 1:50). […] The compound plate map was as follows: Column 1: 2 μl of DMSO; Column 2: 2 μl of DMSO; Columns 3-12 and 13-24: 2 μl of test compound, diluted 1:4 in 100% DMSO, or 2 μl of FSH, diluted 1:4 in DMEM/F12+0.1% BSA. The starting concentration for FSH was 50 nM (final concentration was 0.5 nM). […] 10 μl of mixed HTRF (CisBio #62AM4PEC) reagents were added per well and incubated at room temperature for 1 h. The plates were read on Envision using the cAMP HTRF—low volume 384 well protocol. […] Values given in percent (%) indicate the percental effect (response) at a certain concentration of agonist relative to the maximum response of the FSH standard.
(TR-FRET usually uses a lanthanide donor and a delayed reading to cut background.)
The term EC50 denotes the midpoint of the concentration-response curve. In the case of `COc1cc2c(cc1CC(C)C)-n1c(-c3cccs3)nc(C(=O)NCCNC(C)=O)c1CC2` [Compound 48, 8-Isobutyl-7-methoxy-1-thiophen-2-yl-4,5-dihydro-imidazo[1,5-a]quinoline-3-carboxylic acid (2-acetylamino-ethyl)-amide], the EC50 lay within 1000 to 5000 nM.
Take `COc1cc2c(cc1OC(C)C)-n1c(C3=CCCCO3)nc(C(=O)N3CCOCC3(C)C)c1CC2` [Compound 50]: the EC50 lay within 100 to 1000 nM.
The figure for `COC/C=C/c1nc(C(=O)N2CCOCC2(C)C)c2n1-c1cc(OC(C)C)c(OC)cc1CC2` [Compound 51] is 1000 to 5000 nM; for `COc1cc2c(cc1OC(C)C)-n1c(-c3cn(C)nn3)nc(C(=O)N3CCOCC3(C)C)c1CC2` [Compound 52] it is over 5000 nM.
The figure for `COc1cc2c(cc1OC(C)C)-n1c(-c3[nH]ncc3C)nc(C(=O)N3CCOCC3(C)C)c1CC2` [Compound 54] is 1000 to 5000 nM; for `COc1cc2c(cc1CC(C)C)-n1c(-c3cccs3)nc(C(=O)NC3(C)COC3)c1CC2` [Compound 55, 8-Isobutyl-7-methoxy-1-thiophen-2-yl-4,5-dihydro-imidazo[1,5-a]quinoline-3-carboxylic acid (3-methyl-oxetan-3-yl)-amide] it is 100 to 1000 nM.
For the compound `COc1cc2c(cc1CC(C)C)-n1c(-c3cccs3)nc(C(=O)N3CCOCC34COC4)c1CC2` [Compound 56, (2,8-Dioxa-5-aza-spiro[3.5]non-5-yl)-(8-isobutyl-7-methoxy-1-thiophen-2-yl-4,5-dihydro-imidazo[1,5-a]quinolin-3-yl)-methanone], the EC50 was under 100 nM.
The figure for `COc1cc2c(cc1CC(C)C)-n1c(-c3cccs3)nc(C(=O)N3CCCC34COC4)c1CC2` [Compound 57, (8-Isobutyl-7-methoxy-1-thiophen-2-yl-4,5-dihydro-imidazo[1,5-a]quinolin-3-yl)-(2-oxa-5-aza-spiro[3.4]oct-5-yl)-methanone] is 1000 to 5000 nM; for `[2H]C([2H])([2H])N(C(=O)c1nc(-c2cccs2)n2c1CCc1cc(OC)c(CC(C)C)cc1-2)C1(C)COC1` [Compound 58, 8-Isobutyl-7-methoxy-1-thiophen-2-yl-4,5-dihydro-imidazo[1,5-a]quinoline-3-carboxylic acid methyl-d3-(3-methyl-oxetan-3-yl)-amide] it is under 100 nM.
The figure for `COc1cc2c(cc1OC(C)C)-n1c(-c3sccc3C)nc(C(=O)N3CCOCC3(C)C)c1CC2` [Compound 60] is 100 to 1000 nM.
The figure for `COc1cc2c(cc1OC(C)C)-n1c(-c3cn[nH]c3)nc(C(=O)N3CCOCC3(C)C)c1CC2` [Compound 61] is over 5000 nM; for `COc1cc2c(cc1OC(C)C)-n1c(-c3ccccc3OC)nc(C(=O)N(C)C(C)(C)C)c1CC2` [Compound 62] it is 1000 to 5000 nM.
For `COc1cc2c(cc1OC(C)C)-n1c(-c3ccc(C)cc3)nc(C(=O)N(C)C(C)(C)C)c1CC2` [Compound 63], the EC50 was 100 to 1000 nM.
The figure for `COc1cc2c(cc1OC(C)C)-n1c(-c3ccc(C#N)cc3)nc(C(=O)N(C)C(C)(C)C)c1CC2` [Compound 64] is 1000 to 5000 nM; for `COc1cc2c(cc1OC(C)C)-n1c(-c3cc(Cl)ccc3Cl)nc(C(=O)N(C)C(C)(C)C)c1CC2` [Compound 65] it is 100 to 1000 nM; for `COc1cc2c(cc1OC(C)C)-n1c(-c3cccc(F)c3)nc(C(=O)N(C)C(C)(C)C)c1CC2` [Compound 66] it is 100 to 1000 nM.
The figure for `COc1cc2c(cc1OC(C)C)-n1c(-c3ccccc3Cl)nc(C(=O)N(C)C(C)(C)C)c1CC2` [Compound 67] is 100 to 1000 nM; for `COc1cc2c(cc1OC(C)C)-n1c(-c3cccc(C(F)(F)F)c3)nc(C(=O)N(C)C(C)(C)C)c1CC2` [Compound 68] it is 100 to 1000 nM; for `COc1cc2c(cc1OC(C)C)-n1c(-c3cc[nH]n3)nc(C(=O)N3CCOCC3(C)C)c1CC2` [Compound 69] it is over 5000 nM.
With `COc1cc2c(cc1-c1ccn(C)n1)-n1c(-c3ccn(C)c3)nc(C(=O)N3CCOCC3(C)C)c1CC2` [Compound 73, (3,3-Dimethyl-morpholin-4-yl)-[7-methoxy-8-(1-methyl-1H-pyrazol-3-yl)-1-(1-methyl-1H-pyrrol-3-yl)-4,5-dihydro-imidazo[1,5-a]quinolin-3-yl]-methanone], the EC50 is over 5000 nM.
On to `COC(=O)c1nc(C(=O)N(C)C(C)(C)C)c2n1-c1cc(OC(C)C)c(OC)cc1CC2` [Compound 74, 3-(tert-Butyl-methyl-carbamoyl)-8-isopropoxy-7-methoxy-4,5-dihydro-imidazo[1,5-a]quinoline-1-carboxylic acid methyl ester], for which the EC50 lay within 1000 to 5000 nM.
As for `COc1cc2c(cc1-c1ccn(C)n1)-n1c(-c3ccsc3)nc(C(=O)N(C)C(C)(C)C)c1CC2` [Compound 77, 7-Methoxy-8-(1-methyl-1H-pyrazol-3-yl)-1-thiophen-3-yl-4,5-dihydro-imidazo[1,5-a]quinoline-3-carboxylic acid tert-butyl-methyl-amide], the EC50 is 100 to 1000 nM.
Consider `COc1cc2c(cc1NC(=O)C(C)C)-n1c(-c3cccs3)nc(C(=O)N3CCOCC3(C)C)c1CC2` [Compound 78, N-[3-(3,3-Dimethyl-morpholine-4-carbonyl)-7-methoxy-1-thiophen-2-yl-4,5-dihydro-imidazo[1,5-a]quinolin-8-yl]-isobutyramide], for which the EC50 lay in the range of 100 to 1000 nM.
For the compound `COc1cc2c(cc1OC(C)C)-n1c(C3=CCOCC3)nc(C(=O)N3CCOCC3(C)C)c1CC2` [Compound 79], the EC50 lay within 100 to 1000 nM.
The figure for `COc1cc2c(cc1OC(C)C)-n1c(-c3cnn(C4CCC4)c3)nc(C(=O)N3CCOCC3(C)C)c1CC2` [Compound 80] is over 5000 nM; for `COc1cc2c(cc1OC(C)C)-n1c(-c3cccc4[nH]ncc34)nc(C(=O)N3CCOCC3(C)C)c1CC2` [Compound 81] it is 1000 to 5000 nM; for `COCCCc1nc(C(=O)N2CCOCC2(C)C)c2n1-c1cc(OC(C)C)c(OC)cc1CC2` [Compound 82, (3,3-Dimethyl-morpholin-4-yl)-[8-isopropoxy-7-methoxy-1-(3-methoxy-propyl)-4,5-dihydro-imidazo[1,5-a]quinolin-3-yl]-methanone] it is over 5000 nM.
The figure for `COc1cc2c(cc1OC(C)C)-n1c(C3CCCC3)nc(C(=O)N3CCOCC3(C)C)c1CC2` [Compound 83, (1-Cyclopentyl-8-isopropoxy-7-methoxy-4,5-dihydro-imidazo[1,5-a]quinolin-3-yl)-(3,3-dimethyl-morpholin-4-yl)-methanone] is 100 to 1000 nM.
On to `COc1cc2c(cc1OC(C)C)-n1c(C3CCOCC3)nc(C(=O)N3CCOCC3(C)C)c1CC2` [Compound 84, (3,3-Dimethyl-morpholin-4-yl)-[8-isopropoxy-7-methoxy-1-(tetrahydro-pyran-4-yl)-4,5-dihydro-imidazo[1,5-a]quinolin-3-yl]-methanone], for which the EC50 was over 5000 nM.
The figure for `COc1cc2c(cc1OC(C)C)-n1c(C3CCCCO3)nc(C(=O)N3CCOCC3(C)C)c1CC2` (centres unmarked) [Compound 85, (3,3-Dimethyl-morpholin-4-yl)-[8-isopropoxy-7-methoxy-1-(tetrahydro-pyran-2-yl)-4,5-dihydro-imidazo[1,5-a]quinolin-3-yl]-methanone] is over 5000 nM.
Take `COc1cc2c(cc1OC(C)C)-n1c(C3=CCC(C)CC3)nc(C(=O)N3CCOCC3(C)C)c1CC2` (centres unmarked) [Compound 86]: the EC50 lay in the range of 1000 to 5000 nM.
Take `COc1cc2c(cc1OC(C)C)-n1c(-c3ccnn3CC(C)C)nc(C(=O)N3CCOCC3(C)C)c1CC2` [Compound 87]: the EC50 fell in the range of 1000 to 5000 nM.

These data come from patent US10138233B2, “Imidazole compounds as modulators of FSHR and uses thereof” (Merck Patent GmbH, priority 2013, dated 2018).
